In the supplement of paper PMC11208160:

Assay: recombinant UMI read abundance after kanamycin selection (control-corrected) (log10(CPM+1)); higher = more efficient recombination; extreme values may be limits of the assay; sequences stand for … in AGTGCAGAGAAAATCGGCCAGTTTTCTCTGCCTGCAGTCCGCATGCCGTGGGACCCCTTGGGTTCTAACCTGTTGCCTAGATTTATGCAGCGGACTGCCTTTCTCCCAAAGTGATAAACCGG…AGGTTGGTTTCACT; site = the 11-nt donor
How it was run: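 The measure is log10(CPM+1) for recombinant UMIs. These were PCR-amplified across the donor–target junction and sequenced after Escherichia coli carrying a donor and donor-binding-loop pair library and a target plasmid with T7-inducible IS621 bridge recombinase was plated on IPTG (0.07 mM) plus kanamycin or unselected. CPM were averaged over two replicates and scaled by control-derived factors.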
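Note: IS621 bridge recombinase in Escherichia coli cells against a fixed T5 target plasmid.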

Row | Sequence | recombinant UMI read abundance (log10)
1 | CACTTGGCATGGACCGGTTTTCCCGGTAATCCGTATTTGGC (site CACTTGGCTGC) | 1.64
2 | CACTTGGCATGGACCGGTTTTCCCGGTAATCCGTATTTGGC (site CACTTGGCTTC) | 0.166
3 | CACTTGGCATGGACCGGTTTTCCCGGTAATCCGTATTTGGG (site CACTTGGCTAC) | 0.0307
4 | CACTTGGCATGGACCGGTTTTCCCGGTAATCCGTATTTGGG (site CACTTGGCTCC) | 0.0801
5 | CACTTGGCATGGACCGGTTTTCCCGGTAATCCGTATTTGGG (site CACTTGGCTGC) | 0
6 | CACTTGGCATGGACCGGTTTTCCCGGTAATCCGTATTTGGG (site CACTTGGCTTC) | 0.0398
7 | CACTTGTCATGGACCGGTTTTCCCGGTAATCCGTATTTGGA (site CACTTGACTTC) | 0.0147
8 | CACTTGTCATGGACCGGTTTTCCCGGTAATCCGTATTTGGA (site CACTTGCCTTC) | 0.0181
9 | CACTTGTCATGGACCGGTTTTCCCGGTAATCCGTATTTGGA (site CACTTGGCTTC) | 0.00318
10 | CACTTGTCATGGACCGGTTTTCCCGGTAATCCGTATTTGGA (site CACTTGTCTTC) | 1.84
11 | CAGAAGTCATGGACCGGTTTTCCCGGTAATCCGTATTTGAC (site CAGAAGTCTGT) | 1.46
12 | CAGAATACATGGACCGGTTTTCCCGGTAATCCGTATTTGCA (site AAGAATACTTG) | 0.616
13 | CAGAATACATGGACCGGTTTTCCCGGTAATCCGTATTTGCA (site CAGAATACTTG) | 2.15
14 | CAGAATACATGGACCGGTTTTCCCGGTAATCCGTATTTGCA (site GAGAATACTTG) | 0
15 | CAGAATACATGGACCGGTTTTCCCGGTAATCCGTATTTGCA (site TAGAATACTTG) | 0.38
16 | CAGAATCCATGGACCGGTTTTCCCGGTAATCCGTATTTGTC (site CAGAATCCTGA) | 2.5
17 | CAGAATCCATGGACCGGTTTTCCCGGTAATCCGTATTTGTC (site CGGAATCCTAA) | 0
18 | CAGACATCATGGACCGGTTTTCCCGGTAATCCGTATTTGAG (site CAGACATCTCT) | 3.06
19 | CAGACCGCATGGACCGGTTTTCCCGGTAATCCGTATTTGTC (site CAGACCGCTGA) | 3.23
20 | CAGATGGCATGGACCGGTTTTCCCGGTAATCCGTATTTGTA (site CAGATGGCTTA) | 2.68
21 | CAGCACGCATGGACCGGTTTTCCCGGTAATCCGTATTTGGG (site AAGCACGCTCC) | 0.012
22 | CAGCACGCATGGACCGGTTTTCCCGGTAATCCGTATTTGGG (site CAGCACGCTCC) | 0.512
23 | CAGCACGCATGGACCGGTTTTCCCGGTAATCCGTATTTGGG (site GAGCACGCTCC) | 0.0111
24 | CAGCACGCATGGACCGGTTTTCCCGGTAATCCGTATTTGGG (site TAGCACGCTCC) | 0.0838
25 | CAGCAGCCATGGACCGGTTTTCCCGGTAATCCGTATTTGGT (site CAGCAGCCTAC) | 0.642

Row | Sequence | recombinant UMI read abundance (log10)
26 | CAGCATGCATGGACCGGTTTTCCCGGTAATCCGTATTTGAA (site CAGCATGCTTT) | 2.7
27 | CAGCCAACATGGACCGGTTTTCCCGGTAATCCGTATTTGCA (site CAGCCAACTTG) | 2.34
28 | CAGCGGTCATGGACCGGTTTTCCCGGTAATCCGTATTTGCC (site CAGCGGTCTGG) | 2.76
29 | CAGCTCGCATGGACCGGTTTTCCCGGTAATCCGTATTTGTG (site CAGCTCGCTCA) | 0.0273
30 | CAGCTGGCATGGACCGGTTTTCCCGGTAATCCGTATTTGAT (site CAGCTGGCTAT) | 1.63
31 | CAGGCATCATGGACCGGTTTTCCCGGTAATCCGTATTTGCA (site CAGGCATCTTG) | 2.53
32 | CAGGCCGCATGGACCGGTTTTCCCGGTAATCCGTATTTGAG (site CAGGCCGCTCT) | 0.33
33 | CAGGGGTCATGGACCGGTTTTCCCGGTAATCCGTATTTGAA (site CAGGGGTCTTT) | 3.02
34 | CAGGGTCCATGGACCGGTTTTCCCGGTAATCCGTATTTGGA (site CAGGGTCCTTC) | 0.288
35 | CAGGTCACATGGACCGGTTTTCCCGGTAATCCGTATTTGGG (site CAAGTCACTCC) | 0.0193
36 | CAGGTCACATGGACCGGTTTTCCCGGTAATCCGTATTTGGG (site CACGTCACTCC) | 0.00865
37 | CAGGTCACATGGACCGGTTTTCCCGGTAATCCGTATTTGGG (site CAGGTCACTCC) | 0.0396
38 | CAGGTCACATGGACCGGTTTTCCCGGTAATCCGTATTTGGG (site CATGTCACTCC) | 0.0163
39 | CAGGTCACATGGACCGGTTTTCCCGGTAATCCGTATTTGTC (site CAGGTCACTGA) | 2.7
40 | CAGGTGACATGGACCGGTTTTCCCGGTAATCCGTATTTGTA (site CAGGTGACTTA) | 1.83
41 | CAGGTGGCATGGACCGGTTTTCCCGGTAATCCGTATTTGCG (site CAGGTGGCTCG) | 1.88
42 | CAGTAGACATGGACCGGTTTTCCCGGTAATCCGTATTTGGG (site CAGTAGACTCC) | 0.653
43 | CAGTAGACATGGACCGGTTTTCCCGGTAATCCGTATTTGGG (site CAGTCGACTCC) | 0.00641
44 | CAGTAGACATGGACCGGTTTTCCCGGTAATCCGTATTTGGG (site CAGTGGACTCC) | 0.00992
45 | CAGTAGACATGGACCGGTTTTCCCGGTAATCCGTATTTGGG (site CAGTTGACTCC) | 0.033
46 | CAGTATCCATGGACCGGTTTTCCCGGTAATCCGTATTTGTT (site CAGTATCCTAA) | 1.87
47 | CAGTATCCATGGACCGGTTTTCCCGGTAATCCGTATTTGTT (site CGGAATCCTAA) | 0.00316
48 | CAGTCGACATGGACCGGTTTTCCCGGTAATCCGTATTTGGA (site CAGTCGACTAC) | 0.0073
49 | CAGTCGACATGGACCGGTTTTCCCGGTAATCCGTATTTGGA (site CAGTCGACTCC) | 0.0138
50 | CAGTCGACATGGACCGGTTTTCCCGGTAATCCGTATTTGGA (site CAGTCGACTGC) | 0.00544

Row | Sequence | recombinant UMI read abundance (log10)
51 | CAGTCGACATGGACCGGTTTTCCCGGTAATCCGTATTTGGA (site CAGTCGACTTC) | 0.0121
52 | CAGTCGACATGGACCGGTTTTCCCGGTAATCCGTATTTGGG (site AAGTCGACTCC) | 0.0145
53 | CAGTCGACATGGACCGGTTTTCCCGGTAATCCGTATTTGGG (site CAATCGACTCC) | 0.0099
54 | CAGTCGACATGGACCGGTTTTCCCGGTAATCCGTATTTGGG (site CACTCGACTCC) | 0.0212
55 | CAGTCGACATGGACCGGTTTTCCCGGTAATCCGTATTTGGG (site CAGACGACTCC) | 0.083
56 | CAGTCGACATGGACCGGTTTTCCCGGTAATCCGTATTTGGG (site CAGCCGACTCC) | 0.00881
57 | CAGTCGACATGGACCGGTTTTCCCGGTAATCCGTATTTGGG (site CAGGCGACTCC) | 0
58 | CAGTCGACATGGACCGGTTTTCCCGGTAATCCGTATTTGGG (site CAGTAGACTCC) | 0.34
59 | CAGTCGACATGGACCGGTTTTCCCGGTAATCCGTATTTGGG (site CAGTCAACTCC) | 0.0265
60 | CAGTCGACATGGACCGGTTTTCCCGGTAATCCGTATTTGGG (site CAGTCCACTCC) | 0.0168
61 | CAGTCGACATGGACCGGTTTTCCCGGTAATCCGTATTTGGG (site CAGTCGACTAC) | 0.0109
62 | CAGTCGACATGGACCGGTTTTCCCGGTAATCCGTATTTGGG (site CAGTCGACTCA) | 0.00973
63 | CAGTCGACATGGACCGGTTTTCCCGGTAATCCGTATTTGGG (site CAGTCGACTCC) | 0.297
64 | CAGTCGACATGGACCGGTTTTCCCGGTAATCCGTATTTGGG (site CAGTCGACTCG) | 0
65 | CAGTCGACATGGACCGGTTTTCCCGGTAATCCGTATTTGGG (site CAGTCGACTCT) | 0.314
66 | CAGTCGACATGGACCGGTTTTCCCGGTAATCCGTATTTGGG (site CAGTCGACTGC) | 0
67 | CAGTCGACATGGACCGGTTTTCCCGGTAATCCGTATTTGGG (site CAGTCGACTTC) | 0.00419
68 | CAGTCGACATGGACCGGTTTTCCCGGTAATCCGTATTTGGG (site CAGTCGCCTCC) | 0.0239
69 | CAGTCGACATGGACCGGTTTTCCCGGTAATCCGTATTTGGG (site CAGTCGGCTCC) | 0.0315
70 | CAGTCGACATGGACCGGTTTTCCCGGTAATCCGTATTTGGG (site CAGTCGTCTCC) | 0.151
71 | CAGTCGACATGGACCGGTTTTCCCGGTAATCCGTATTTGGG (site CAGTCTACTCC) | 0.0277
72 | CAGTCGACATGGACCGGTTTTCCCGGTAATCCGTATTTGGG (site CAGTGGACTCC) | 0.0181
73 | CAGTCGACATGGACCGGTTTTCCCGGTAATCCGTATTTGGG (site CAGTTGACTCC) | 0.0173
74 | CAGTCGACATGGACCGGTTTTCCCGGTAATCCGTATTTGGG (site CATTCGACTCC) | 0.0119
75 | CAGTCGACATGGACCGGTTTTCCCGGTAATCCGTATTTGGG (site CCGTCGACTCC) | 0.00307
